According to paper PMC6131539, “Behavioral Effects of a Potential Novel TAAR1 Antagonist” (Frontiers in Pharmacology, 2018):

Tests used:
TAAR1-KO mice = assay: Stereotypic counts, co-injection with amphetamine, TAAR1-KO mice; assay type: in vivo; settings: only 15 mg/kg, co-injected with amphetamine 2 mg/kg
Procedure: (§1) Experimentally naïve mice, of at least 12 weeks of age, were used for all behavioral experiments. The mice were randomly assigned to treatment or control groups, balanced by sex and weight. Locomotor activity was assessed using the automated locomotor analysis monitors (Omnitech Electronics, Columbus, OH, United States). The apparatus included four open field monitors. Each Open Field monitor consisted of sets of 16 light beams arrayed in the horizontal X and Y axes. The hardware detected beams broken by the animal, which allowed the software to determine the location of the mouse in the cage. Total distance covered by mice was used to characterize locomotor activity of the animals. The monitors were divided into four compartments (20 cm × 20 cm). Animals were tested individually for defined periods with 5-min intervals. The mice were first weighed and then placed into the apparatus, allowing for 30 min habituation. […] The locomotor activity was then measured for additional 1 h. […]
Supplementary file Image_2.TIF: FIGURE S2 In vivo studies with TAAR1-KO mice and compound 22 on stereotypic counts activity. […] The sum of stereotypic counts was assessed over 60 min after the injection of amphetamine and compound 22 in WT (solid bars) or TAAR1-KO mice (spotted bars). […] The sum of stereotypic counts was assessed over 60 min following the injection in WT (solid bars) or TAAR1-KO mice (dotted bars). […]

C57BL/6J mice [1] = assay: Cocaine-induced locomotor activity, co-injection, C57BL/6J mice; assay type: in vivo; settings: 60 min
Procedure: (§2) Experimentally naïve mice, of at least 12 weeks of age, were used for all behavioral experiments. The mice were randomly assigned to treatment or control groups, balanced by sex and weight. Locomotor activity was assessed using the automated locomotor analysis monitors (Omnitech Electronics, Columbus, OH, United States). The apparatus included four open field monitors. Each Open Field monitor consisted of sets of 16 light beams arrayed in the horizontal X and Y axes. The hardware detected beams broken by the animal, which allowed the software to determine the location of the mouse in the cage. Total distance covered by mice was used to characterize locomotor activity of the animals. The monitors were divided into four compartments (20 cm × 20 cm). Animals were tested individually for defined periods with 5-min intervals. The mice were first weighed and then placed into the apparatus, allowing for 30 min habituation. Following the habituation, the mice were removed from the al apparatus and injected with drugs (see below for administration) or vehicle and returned immediately to the locomotor chamber. The locomotor activity was then measured for additional 1 h. After the experiments, the animals were euthanized by cervical dislocation.
(§3) All drug solutions were prepared freshly on the day of the experiment and injected i.p. at the volume of 10 ml/kg. […] Amphetamine was dissolved in 0.9% saline at a concentration of 0.2 mg/mL.
Since compound 22 enhanced amphetamine-induced locomotor response, we assessed if compound 22 could also enhance cocaine-induced locomotion in WT C57BL/6J mice (Figure 3).
The locomotor activity was assessed for 60 min after the injection. […] Data are means ± SEM; N = 7–9. One way ANOVA was performed [F(3,28) = 7.138, p = 0.001] followed by Dunnett’s post hoc analyses (^∗p < 0.05, ^∗∗∗p < 0.001).

[2] = system: WT littermates (C57BL/6J × 129S2/Sv); assay: Cocaine-induced locomotor activity, co-injection, WT littermates; assay type: in vivo, mice; settings: 5, 15 and 25 mg/kg co-injected with cocaine 10 mg/kg
Procedure: The Taarl^-/- (TAAR1-KO) mice were obtained from Lundbeck ([Wolinsky et al., 2007]). All wild type (WT) and TAAR1-KO mice used for experiments were generated from TAAR1-KO heterozygous mice in a C57BL/6J x 129S1/Sv mixed background.
as §1
The locomotor activity was assessed for 60 min following the injection. […]

C57BL/6J mice [3] = assay: Amphetamine-induced locomotor activity, co-injection, C57BL/6J mice; assay type: in vivo; settings: 60 min
Procedure: as §2, §3
The effect of compound 22 (5, 15, 20, 30, and 50 mg/kg) on locomotor activity, in mice, in combination to a single, sub-maximal dose of amphetamine (2 mg/kg) was carried out (Figure 2). […] Although not significant, there was a trend toward an increase in locomotor activity at the dose of 5 mg/kg as well (28% increase, p = 0.32).
FIGURE 2 In vivo studies with compound 22 co-injected with amphetamine in WT mice. Wild type C57BL/6J mice were first habituated for 30 min followed by the co-injection of amphetamine (2 mg/kg) and saline or compound 22 at doses 5, 15, 20, 25, 30, and 50 mg/kg. The locomotor activity was assessed for 60 min after the injection. (A) Locomotor activity over time for 2 mg/kg amphetamine only or co-injected with 5, 15, or 20 mg/kg compound 22; (B) locomotor activity over time for 2 mg/kg amphetamine only or co-injected with 30 or 50 mg/kg compound 22; (C) sum of locomotor activity over 60 min after the injection of amphetamine and compound 22. Data are means ± SEM; N = 12–18 for compound 22 treated alone and N = 66 for amphetamine treated alone. A one way ANOVA was performed [F(5,126) = 4.788, p = 0.0005] followed by Dunnett’s post hoc analyses (^∗p < 0.05, ^∗∗∗p < 0.001).

Clc1ccc(CNCc2ccc(Cn3cncn3)cc2)c(Cl)c1 [compound 22]
stereotypic counts (TAAR1-KO mice): statistically significant increase in stereotypic counts | increase in cocaine-induced locomotor activity (C57BL/6J mice [1]; 5 mg/kg i.p. co-injected with cocaine 10 mg/kg, p = 0.03): 77% | increase in cocaine-induced locomotor activity (C57BL/6J mice [1]; 15 mg/kg i.p. co-injected with cocaine 10 mg/kg, p = 0.02): 84% | increase in cocaine-induced locomotor activity (C57BL/6J mice [1]; 25 mg/kg i.p. co-injected with cocaine 10 mg/kg, p = 0.003): 124% | effect on locomotor stimulating effects of cocaine [2]: significantly potentiate | increase in amphetamine-stimulated locomotor activity (C57BL/6J mice [3]; 5 mg/kg i.p. co-injected with amphetamine 2 mg/kg, not significant, p = 0.32): 28% | increase in amphetamine-stimulated locomotor activity (C57BL/6J mice [3]; 15 mg/kg i.p. co-injected with amphetamine 2 mg/kg, p = 0.04): 44% | increase in amphetamine-stimulated locomotor activity (C57BL/6J mice [3]; 20 mg/kg i.p. co-injected with amphetamine 2 mg/kg, p = 0.02): 57% | increase in amphetamine-stimulated locomotor activity (C57BL/6J mice [3]; 30 mg/kg i.p. co-injected with amphetamine 2 mg/kg, p = 0.0009): 77% | change in amphetamine-stimulated locomotor activity (C57BL/6J mice [3]; 50 mg/kg i.p. co-injected with amphetamine 2 mg/kg): no difference in locomotor activity
